≈ marks a conversion by molar mass, not a printed value. Where two headings read alike, the source gives them in different places.
What was measured:
[1] = test system: Pseudomonas aeruginosa (P. aeruginosa) 27853; assay: Antibacterial activity, MIC, P. aeruginosa 27853; type: cell-based; conditions: Pseudomonas aeruginosa, P. aeruginosa 27853; read-out: MIC 27853
Excerpt: (§1) The antibacterial activity from a microbroth dilution method may be presented as the minimum inhibitory concentration (MIC in […]). The MIC value is the lowest concentration of a drug which prevents macroscopically visible bacterial growth under test conditions.
Antibacterial activity of test compounds against the Gram-negative bacterium Pseudomonas aeruginosa (P. aeruginosa) 27853 is shown in Table 5.

[2] = test system: E. coli ELZ4000 (MDR clinical isolate); assay: Antibacterial activity, MIC, MDR E. coli ELZ4000; type: cell-based, Escherichia coli; conditions: Escherichia coli; E. coli ELZ4000, MDR clinical isolate; read-out: MIC ELZ4000
[3] = test system: Gram-positive Staphylococcus aureus (S. aureus) 29213; assay: Antibacterial activity, microbroth dilution MIC, S. aureus 29213; type: cell-based; conditions: Staphylococcus aureus; S. aureus 29213, microbroth dilution; read-out: MIC, 29213
[4] = test system: super sensitive Gram-negative Escherichia coli (E. coli) BAS849; assay: Antibacterial activity, microbroth dilution MIC, E. coli BAS849; type: cell-based; conditions: Escherichia coli, read-out: MIC, BAS849
[5] = test system: Neisseria meningitidis (N. meningitidis) 13090; assay: Antibacterial activity, MIC, N. meningitidis 13090; type: cell-based; conditions: Neisseria meningitidis; N. meningitidis 13090; read-out: MIC 13090
[6] = test system: quinolone resistant E. coli LZ3111; assay: Antibacterial activity, MIC, quinolone resistant E. coli LZ3111; type: cell-based, Escherichia coli; conditions: Escherichia coli, read-out: MIC, LZ3111
Excerpt: as §1
Mutations in these regions are known to confer a high level resistance to the quinolone class of antibiotics.

[7] = test system: Haemophilus influenzae (H. influenzae) 49247; assay: Antibacterial activity, MIC, H. influenzae 49247; type: cell-based; conditions: Haemophilus influenzae; H. influenzae 49247; read-out: MIC 49247
Excerpt: as §1
Antibacterial activity of test compounds against the Gram-negative bacteria Haemophilus influenzae (H. influenzae) 49247, Moraxella catarrhalis (M. catarrhalis) 25238 and Neisseria meningitidis (N. meningitidis) 13090 is shown in Table 6.

[8] = test system: control Gram-negative E. coli 25922 strain; assay: Antibacterial activity, microbroth dilution MIC, E. coli 25922; type: cell-based, Escherichia coli; conditions: Escherichia coli; E. coli 25922, microbroth dilution; read-out: MIC, 25922
[9] = test system: Moraxella catarrhalis (M. catarrhalis) 25238; assay: Antibacterial activity, MIC, M. catarrhalis 25238; type: cell-based; conditions: Moraxella catarrhalis, M. catarrhalis 25238; read-out: MIC 25238
[10] = test system: E. coli ELZ4251 (MDR clinical isolate); assay: Antibacterial activity, MIC, MDR E. coli ELZ4251; type: cell-based, Escherichia coli; conditions: Escherichia coli, E. coli ELZ4251, MDR clinical isolate; read-out: MIC ELZ4251
[11] = E. coli BAS849, microbroth dilution

CCc1cc(C(=O)O)c(=O)[nH]c1-c1ccc(N2CCC(O)C2)cc1 (centres unmarked) [Cpd 123, 5-ethyl-6-[4-(3-hydroxypyrrolidin-1-yl)phenyl]-2-oxo-1,2-dihydropyridine-3-carboxylic acid]
MIC [1]: 3.5 to 12.5 µg/mL (≈ 10.7 to 38.1 µM) | MIC [2]: 12.5 to 150 µg/mL (≈ 38.1 to 457 µM) | MIC [3]: 3.5 to 12.5 µg/mL (≈ 10.7 to 38.1 µM) | MIC [4, 11]: < 1 µg/mL | MIC [5]: < 1 µg/mL | MIC [6]: 12.5 to 150 µg/mL (≈ 38.1 to 457 µM) | MIC [7]: < 1 µg/mL | MIC [8]: < 1 µg/mL | MIC [9]: < 1 µg/mL | MIC [10]: 12.5 to 150 µg/mL (≈ 38.1 to 457 µM)

CCc1cc(C(=O)O)c(=O)[nH]c1-c1ccc(N2CCC(OCc3ccccc3)C2)cc1 (centres unmarked) [Cpd 128, 6-{4-[3-(benzyloxy)pyrrolidin-1-yl]phenyl}-5-ethyl-2-oxo-1,2-dihydropyridine-3-carboxylic acid]
MIC [1]: 12.5 to 150 µg/mL (≈ 29.9 to 358 µM) | MIC [2]: 12.5 to 150 µg/mL (≈ 29.9 to 358 µM) | MIC [3]: 1 to 3.5 µg/mL (≈ 2.39 to 8.36 µM) | MIC [4, 11]: < 1 µg/mL | MIC [5]: < 1 µg/mL | MIC [6]: 12.5 to 150 µg/mL (≈ 29.9 to 358 µM) | MIC [7]: 1 to 3.5 µg/mL (≈ 2.39 to 8.36 µM) | MIC [8]: 12.5 to 150 µg/mL (≈ 29.9 to 358 µM) | MIC [9]: < 1 µg/mL | MIC [10]: 12.5 to 150 µg/mL (≈ 29.9 to 358 µM)

CCc1cc(C(=O)O)c(=O)[nH]c1-c1ccc(N2CC[C@H](N)C2)cc1.Cl [Cpd 132, 6-{4-[(3S)-3-aminopyrrolidin-1-yl]phenyl}-5-ethyl-2-oxo-1,2-dihydropyridine-3-carboxylic acid hydrochloride]
MIC [2]: 12.5 to 150 µg/mL | MIC [3]: 3.5 to 12.5 µg/mL | MIC [4, 11]: < 1 µg/mL | MIC [5]: < 1 µg/mL | MIC [6]: 12.5 to 150 µg/mL | MIC [7]: < 1 µg/mL | MIC [8]: 1 to 3.5 µg/mL | MIC [9]: < 1 µg/mL | MIC [10]: 12.5 to 150 µg/mL

CCc1cc(C(=O)O)c(=O)[nH]c1-c1ccc(N2C[C@@H](N)[C@H](OC)C2)cc1.Cl [Cpd 134, 6-{4-[(3R,4R)-3-amino-4-methoxypyrrolidin-1-yl]phenyl}-5-ethyl-2-oxo-1,2-dihydropyridine-3-carboxylic acid hydrochloride]
MIC [2]: 12.5 to 150 µg/mL | MIC [3]: 12.5 to 150 µg/mL | MIC [4, 11]: < 1 µg/mL | MIC [5]: < 1 µg/mL | MIC [6]: 12.5 to 150 µg/mL | MIC [7]: < 1 µg/mL | MIC [8]: 3.5 to 12.5 µg/mL | MIC [9]: 3.5 to 12.5 µg/mL | MIC [10]: 12.5 to 150 µg/mL

CCc1cc(C(=O)O)c(=O)[nH]c1-c1ccc(N2CCC(N3CCOCC3)C2)cc1.O=C(O)C(F)(F)F (centres unmarked) [Cpd 140, 5-ethyl-6-{4-[3-(morpholin-4-yl)pyrrolidin-1-yl]phenyl}-2-oxo-1,2-dihydropyridine-3-carboxylic acid trifluoroacetate]
MIC [1]: 12.5 to 150 µg/mL | MIC [2]: 12.5 to 150 µg/mL | MIC [3]: 12.5 to 150 µg/mL | MIC [4]: < 1 µg/mL | MIC [5]: < 1 µg/mL | MIC [6]: 12.5 to 150 µg/mL | MIC [7]: < 1 µg/mL | MIC [8]: 3.5 to 12.5 µg/mL | MIC [9]: < 1 µg/mL | MIC [10]: 12.5 to 150 µg/mL

CCc1cc(C(=O)O)c(=O)[nH]c1-c1ccc(N2CCC[C@@H]2C(F)(F)F)cc1 [Cpd 141, 5-ethyl-2-oxo-6-{4-[(2R)-2-(trifluoromethyl)pyrrolidin-1-yl]phenyl}-1,2-dihydropyridine-3-carboxylic acid]
MIC [1]: 12.5 to 150 µg/mL (≈ 32.9 to 394 µM) | MIC [2]: 12.5 to 150 µg/mL (≈ 32.9 to 394 µM) | MIC [3]: 3.5 to 12.5 µg/mL (≈ 9.2 to 32.9 µM) | MIC [4, 11]: < 1 µg/mL | MIC [5]: < 1 µg/mL | MIC [6]: 12.5 to 150 µg/mL (≈ 32.9 to 394 µM) | MIC [7]: < 1 µg/mL | MIC [8]: 12.5 to 150 µg/mL (≈ 32.9 to 394 µM) | MIC [9]: < 1 µg/mL | MIC [10]: 12.5 to 150 µg/mL (≈ 32.9 to 394 µM)

CCc1cc(C(=O)O)c(=O)[nH]c1-c1ccc(N2CCC(F)(F)C2)cc1 [Cpd 144, 6-[4-(3,3-difluoropyrrolidin-1-yl)phenyl]-5-ethyl-2-oxo-1,2-dihydropyridine-3-carboxylic acid]
MIC [1]: 12.5 to 150 µg/mL (≈ 35.9 to 431 µM) | MIC [2]: 12.5 to 150 µg/mL (≈ 35.9 to 431 µM) | MIC [3]: 3.5 to 12.5 µg/mL (≈ 10 to 35.9 µM) | MIC [4, 11]: < 1 µg/mL | MIC [5]: < 1 µg/mL | MIC [6]: 12.5 to 150 µg/mL (≈ 35.9 to 431 µM) | MIC [7]: < 1 µg/mL | MIC [8]: 1 to 3.5 µg/mL (≈ 2.87 to 10 µM) | MIC [9]: < 1 µg/mL | MIC [10]: 12.5 to 150 µg/mL (≈ 35.9 to 431 µM)

C=CCN(CC=C)c1ccc(-c2[nH]c(=O)c(C(=O)O)c(O)c2CC)cc1 [Cpd 300, 6-{4-[di(prop-2-en-1-yl)amino]phenyl}-5-ethyl-4-hydroxy-2-oxo-1,2-dihydropyridine-3-carboxylic acid]
MIC [2]: 12.5 to 150 µg/mL (≈ 35.3 to 423 µM) | MIC [3]: 1 to 3.5 µg/mL (≈ 2.82 to 9.88 µM) | MIC [4, 11]: 1 to 3.5 µg/mL (≈ 2.82 to 9.88 µM) | MIC [5]: < 1 µg/mL | MIC [6]: 12.5 to 150 µg/mL (≈ 35.3 to 423 µM) | MIC [7]: 12.5 to 150 µg/mL (≈ 35.3 to 423 µM) | MIC [8]: 12.5 to 150 µg/mL (≈ 35.3 to 423 µM) | MIC [9]: < 1 µg/mL | MIC [10]: 12.5 to 150 µg/mL (≈ 35.3 to 423 µM)

CCc1c(-c2ccc(N(C)C)s2)[nH]c(=O)c(C(=O)O)c1O [Cpd 306, 6-[5-(dimethylamino)thiophen-2-yl]-5-ethyl-4-hydroxy-2-oxo-1,2-dihydropyridine-3-carboxylic acid]
MIC [2]: 12.5 to 150 µg/mL (≈ 40.5 to 486 µM) | MIC [3]: 3.5 to 12.5 µg/mL (≈ 11.4 to 40.5 µM) | MIC [4, 11]: < 1 µg/mL | MIC [5]: < 1 µg/mL | MIC [6]: 12.5 to 150 µg/mL (≈ 40.5 to 486 µM) | MIC [7]: < 1 µg/mL | MIC [8]: 3.5 to 12.5 µg/mL (≈ 11.4 to 40.5 µM) | MIC [9]: < 1 µg/mL | MIC [10]: 12.5 to 150 µg/mL (≈ 40.5 to 486 µM)
